Read-outs that look alike come from different tables or passages of the source.
Assays:
healthy volunteers [1] = test: Phase 1b crossover clinical trial: reflux events measured by multichannel intraluminal impedance and pH (MII-pH) after a refluxogenic meal; assay type: in vivo, human
Method: The clinical trial reported here was a Phase 1b, randomized, double-blind placebo-controlled, crossover study. In the Study, 28 healthy volunteers were administered doses of DDP733 (0.5, 0.8 and 1.4 mg) and placebo and then given a refluxogenic meal. For a period of two hours after completion of the refluxogenic meal, reflux events were measured using intraesophageal impedance.
Phase 1b, randomized, double-blinded, placebo controlled, crossover study.
Three Study Periods: Total Number of Visits=4 • (1) Ten-day screening period (2 visits); • (2) Two week treatment period (Days 1-14) (2 visits: Day 1 which is on the same day as the second screening visit, and Day 8); and • (3) One day end of study period (1 visit).
Subjects were randomized into a treatment group on Day 1 (the same day as visit 2 of the screening period). For the completed study, each subject was exposed to one of the dose levels of DDP733 (i.e., 0.5 mg, 0.8 mg and 1.4 mg) and to placebo in randomized sequence to complete approximately one week of dosing with each of the two dosing regimens (DDP733 and placebo). The six treatment sequences were:
For example, there were 7 subjects in the study who received the 0.5 mg dose of DDP733. At the commencement of dosing period 1, three subjects in the 0.5 mg group received placebo and 4 subjects received 0.5 mg of drug. […]
(§1) After randomization, subjects received a first dose of study medication (Day 1). The medication was administered under supervision and the subjects were then evaluated by manometry to assess LES position and pressure and by a multichannel intraluminal impedance and pH (MII-pH) procedures to measure the number of reflux events following ingestion of a refluxogenic meal (sausage and egg breakfast sandwich and 8 oz. cup of coffee). […]
• Primary: Reduction in esophageal reflux during a provocative procedure (following a refluxogenic meal) as measured by MII-pH; • Secondary: • (a) Change in reflux related symptoms (heartburn, regurgitation, acid taste) associated with ingestion of a refluxogenic meal; and • (b) Change in lower esophageal sphincter pressure. […]

healthy volunteers [2] = test: Phase 1b clinical trial: lower esophageal sphincter pressure (LESP) by manometry; assay type: in vivo, human; conditions: 0.5 mg, 0.8 mg and 1.4 mg
Method: as §1, with “coffee). The supervised dose was the only dose administered on this initial day of testing (Day 1). Subjects continued dosing for a further five day, then had one day with no study medication before returning for the next visit on Day 8. The same procedure was performed on Day 8 of the treatment period (i.e., the first day of the second dosing period).” for “coffee).”
(§2) • Primary: Reduction in esophageal reflux during a provocative procedure (following a refluxogenic meal) as measured by MII-pH; • Secondary: • (a) Change in reflux related symptoms (heartburn, regurgitation, acid taste) associated with ingestion of a refluxogenic meal; and • (b) Change in lower esophageal sphincter pressure.

healthy volunteers [3] = test: Phase 1b clinical trial: reflux related symptoms (heartburn, regurgitation, acid taste) associated with refluxogenic meal; assay type: in vivo, human; conditions: 0.5 mg, 0.8 mg and 1.4 mg
Method: In addition to assessment of the LESP and number of reflux events, subjects were also assessed on Days 1 and 8 to determine the frequency of the following symptoms: heartburn; regurgitation; and acid taste associated with the refluxogenic meal.
as §2

healthy volunteers [4] = test: Phase 1b clinical trial: safety and tolerability (vital signs, adverse events, clinical laboratory testing, ECGs); assay type: in vivo, human
Excerpt: Characterize the safety and tolerability of DDP733 in volunteers.
Safety measurements included monitoring of vital signs and adverse events, clinical laboratory testing and performance of electrocardiograms (ECGs).

Humans = conditions: cited from earlier work
gastric acid = conditions: cited from earlier work

## O=C(N[C@H]1CN2CCC1CC2)c1c[nH]c2ccsc2c1=O [DDP733, (R)—N-1-azabicyclo[2.2.2]oct-3-yl-4,7-dihydro-7-oxothieno[3,2-b]pyridine-6-carboxamide]
Healthy volunteers [1]; 0.5 mg dose, p=0.0313, Wilcoxon signed-rank test
  statistical significance on primary clinical endpoint of reduction in the number of reflux events versus placebo: achieved statistical significance
Healthy volunteers [1]; 0.8 mg dose
  reduction in the number of reflux events versus placebo: did not show a statistically significant reduction
Healthy volunteers [1]; 1.4 mg dose
  reduction in the number of reflux events versus placebo: did not show a statistically significant reduction
Healthy volunteers [2]
  LESP versus placebo (secondary endpoint): no statistically significant differences
Healthy volunteers [3]
  reflux related symptoms versus placebo (secondary endpoint): no statistically significant differences
Healthy volunteers [4]; all doses
  adverse events (AEs) leading to discontinuation: no adverse events (AEs) leading to discontinuation
  significant adverse events (SAEs): no significant adverse events (SAEs) reports
Healthy volunteers [4]; all doses (0.5, 0.8, 1.4 mg)
  safety and tolerability: safe and well tolerated
Healthy volunteers [4]; did not require medication
  time to resolution of drug related adverse events: 1 to 5 days
Healthy volunteers [4]; human, in vivo
  liver or cardiac abnormalities: No liver or cardiac abnormalities were observed
  severity of drug related adverse events (nausea, vomiting, pruritus, rash, rash macular, flush/hot flush, abdominal pain/discomfort): mild/moderate
Humans; 0.2 mg dose
  effect on increasing gastric emptying: no significant effect
  effect on the fundus: no significant effect
Humans; 1.0 mg dose
  effect on increasing gastric emptying: no significant effect
  effect on the fundus: no significant effect
Humans; 4.0 mg dose
  effect on gastric emptying: delays gastric emptying
  effect on the fundus: relaxes the fundus
Gastric acid
  gastric acid suppressing activity: has gastric acid suppressing activity
